Measurements taken from the NIST ThermoML archive (doi:10.1021/je3012452).
Numbers after ± are expanded uncertainties.

Legend:
[1] = DTA
[2] = Molar enthalpy of transition or fusion; conditions: DSC

Row | Normal melting temperature ([1]; Crystal) | Molar enthalpy of transition or fusion ([2]; Crystal) | Normal melting temperature ([1]; Crystal 1) | Triple point temperature ([1]; Crystal 2) | Molar enthalpy of transition or fusion ([2]; Crystal 1) | Molar enthalpy of transition or fusion ([2]; Crystal 2) | Triple point temperature ([1]; Crystal 3) | Molar enthalpy of transition or fusion ([2]; Crystal 3) | Structure (SMILES)
1 | 128.5 ± 0.9 °C | 4.76 ± 0.12 kcal/mol |  |  |  |  |  |  | CC(C)C(N)=O [2-methylpropanamide]
2 |  |  | 125.1 ± 0.5 °C | 360.6 ± 0.9 K | 5.38 ± 0.311 kcal/mol | 0.418 ± 0.105 kcal/mol |  |  | CCCC(CCC)C(N)=O [2-propylpentanamide]
3 |  |  | 95.5 ± 1.1 °C | 356.1 ± 0.5 K | 3.87 ± 0.12 kcal/mol | 0.813 ± 0.0478 kcal/mol | 319 ± 1.6 K | 1.79 ± 0.143 kcal/mol | CCCCCCC(N)=O [heptanamide]
4 |  |  | 99.2 ± 2.8 °C | 306.1 ± 0.5 K | 4.02 ± 0.167 kcal/mol | 1.22 ± 0.0717 kcal/mol |  |  | CCCCCC(N)=O [hexanamide]
